Assay results: US10889812B2, “Short non-coding protein regulatory RNAs (sprRNAs) and methods of use” (University of Maryland, Baltimore, priority 2014, dated 2021)

Experiments:
HBE4 cells [1] = experiment: Cell cycle analysis by flow cytometry, HBE4 cells synchronized at S phase; format: cell-based, human; conditions: measured every 2 hrs, vs Scr
Experimental: We then wanted to determine whether piR-L-163 (SEQ ID NO:282) plays a functional role in human bronchial epithelial cells. We treated HBE4 cells as well as primary normal human bronchial epithelial (NHBE) cells with piR-L-163 complementary DNA oligonucleotides (Ant-163) (SEQ ID NO:496) or RNA oligonucleotides (Ant-163R) (SEQ ID NO:497) in the experiment. […] Cell cycle distributions were measured every 2 hrs.
Cell cycle distribution was analyzed by Flow Cytometry (Becton-Dickinson). Cells were synchronized in growth factor-free Keratinocyte-SFM with 2 mM Thymidine (Catalog No. T1895, Sigma-Aldrich) for 24 hrs. Transfection is performed using Lipofectamine™ RNAiMAX (Invitrogen) according to its manual, and the final concentration of annealed oligo RNAs is 400 nM. Four hour after transfection, culture medium was replaced by complete Keratinocyte-SFM supplemented with L-Glutamine, prequalified human recombinant EGF 1-53 and BPE. Cells were harvested at different time points, washed in phosphate-buffer saline (PBS), fixed with ice-cold 70% ethanol, and strained in PI/RNase solution (BD Pharmigen). The samples were analyzed on a FACScan flow cytometer in combination with BD lysis software (Becton-Dickinson).

HBE4 cells [2] = experiment: Quantitative cell migration assay; format: cell-based, human; conditions: HBE4, vs Scr control
Description: (§1) For cell migration, we used two complementary assays. […] To compensate potential differences in the cell numbers among different treatment conditions, we seeded 10% less cells for Ant-163 treated HBE4 cells and 10% more cells for piR-L-163 transfected H1792 cells.
(§2) Two complimentary methods were used. For quantitative fluorescent dye assay, Innocyto™ Cell migration Assay kit (EMD Millipore) was used. Briefly, 24 hrs after treatment, 1×10^5 cells (10% less for Ant-163 treated cells or 10% more for piR-L-163 treated cells) were loaded to the upper chamber with growth factor-free Keratinocyte-SFM for (HBE4 cells) or serum-free DMEM (for H1792 cells) with the bottom chamber exposed to completed culture medium. Negative controls were used with 3 μM Latrunculin A. After 12 hrs incubation, fluorescence was measured using a fluorescence plate reader 485 nm (excitation) and 520 nm (emission) according to the manufacturer's instruction. For wound-healing assay, cells (24 hrs after treatment with different DNA or RNA oligonucleotides) were grown to confluence followed by scratching with a pipette tip to create a gap. The floating cells were removed and the gaps were monitored/photographed every 12 hrs.

[3] = target: T1, mutant form of moesin with RRRKPDT deletion (Moesin-DM) (Homo sapiens, UniProt P26038, DEL293-299); experiment: IP/RT-PCR binding to introduced moesin in H522 cells; conditions: H522 cells co-transfected
T1 construct: expressed in transfected cells; host or cells: H522 cells, pcDNA3.1(+) plasmid
Description: (§3) To determine potential element of ERM proteins critical for their binding with piR-L-163, we analyzed human and Drosophila moesin sequences using BindN (http://bioinfo.ggc.org/bindn/) and identified RRRKPDT (SEQ ID NO:488) at position 293-299 as a candidate RNA binding element (FIG. 12a, b). We then constructed plasmids containing either wild-type human moesin (Moesin-WT) or a mutant form of moesin with RRRKPDT (SEQ ID NO:488) deletion (Moesin-DM). Both plasmids produce high levels of moesin proteins in the transfected cells (FIG. 5d). We used two cell lines (H522 and HBE4) to test if this element contributes to the binding between moesin and piR-L-163. H522 cells expressed extremely low level of endogenous p-ERM (FIG. 5c) and very low level of piR-L-163 (FIG. 11a). H522 cells transfected with piR-L-163 were simultaneously transfected with either Moesin-WT or Moesin-DM to determine the potential binding ability of the introduced moesin proteins with piR-L-163. We also used the non-functional piR-L-163M1 mutant to replace piR-L-163 in the experiment as a negative control. […] We next transfected HBE4 cells which expressed both p-ERM and piR-L-163 (FIG. 4e and FIG. 11a) with either Moesin-WT or Moesin-DM after knocked down the endogenous moesin in the cells. […]

[4] = target: T2, wild-type human moesin (Moesin-WT) (Homo sapiens, UniProt P26038); experiment: as above; conditions: H522 cells co-transfected
T2 construct: expressed in transfected cells; host or cells: H522 cells, pcDNA3.1(+) plasmid
Description: as §3

H1792 cells = experiment: Quantitative cell migration assay; format: cell-based, human; conditions: H1792, vs Scr or Ant-163
Description: as §1, §2

T2 sequence (P26038 whole entry): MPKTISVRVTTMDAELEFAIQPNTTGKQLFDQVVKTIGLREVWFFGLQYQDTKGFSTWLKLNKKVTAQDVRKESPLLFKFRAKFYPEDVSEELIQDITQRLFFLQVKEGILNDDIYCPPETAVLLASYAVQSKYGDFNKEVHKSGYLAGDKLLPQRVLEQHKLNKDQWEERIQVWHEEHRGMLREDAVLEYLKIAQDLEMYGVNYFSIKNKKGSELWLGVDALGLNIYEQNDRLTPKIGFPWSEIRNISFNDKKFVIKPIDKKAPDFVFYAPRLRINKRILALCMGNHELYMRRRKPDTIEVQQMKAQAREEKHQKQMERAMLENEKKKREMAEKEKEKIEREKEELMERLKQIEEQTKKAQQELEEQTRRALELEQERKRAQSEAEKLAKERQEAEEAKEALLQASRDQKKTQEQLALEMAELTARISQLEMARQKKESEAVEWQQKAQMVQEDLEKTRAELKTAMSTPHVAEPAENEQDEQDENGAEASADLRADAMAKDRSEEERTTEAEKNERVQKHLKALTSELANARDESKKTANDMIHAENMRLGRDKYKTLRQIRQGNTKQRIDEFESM
T1 sequence (P26038 with tags, fused parts or gaps DEL293-299): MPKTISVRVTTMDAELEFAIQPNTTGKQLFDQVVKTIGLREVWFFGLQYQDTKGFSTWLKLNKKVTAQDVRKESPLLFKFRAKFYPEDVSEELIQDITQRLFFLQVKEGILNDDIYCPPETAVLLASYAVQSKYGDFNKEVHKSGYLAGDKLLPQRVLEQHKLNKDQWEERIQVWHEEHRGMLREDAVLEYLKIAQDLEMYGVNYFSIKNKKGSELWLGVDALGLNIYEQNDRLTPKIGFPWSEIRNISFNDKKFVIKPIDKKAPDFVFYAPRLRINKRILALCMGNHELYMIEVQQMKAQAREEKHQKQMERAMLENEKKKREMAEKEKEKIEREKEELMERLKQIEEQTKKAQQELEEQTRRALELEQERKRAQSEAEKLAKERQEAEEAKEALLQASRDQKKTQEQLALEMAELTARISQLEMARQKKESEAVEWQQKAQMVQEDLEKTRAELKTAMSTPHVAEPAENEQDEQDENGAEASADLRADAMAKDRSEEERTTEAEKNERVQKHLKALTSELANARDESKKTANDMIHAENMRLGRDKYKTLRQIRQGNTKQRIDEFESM

“Ant-163: DNA sequence antisense to piR-L-163, SEQ ID NO:496, 5′-GGTCAGAGAATCAAAGTAACATCATGATAT-3′ (DNA, backbone and methylation of C not given here)” was tested, and the cell cycle distribution (HBE4 cells [1]) was “accelerated DNA synthesis and G2-M accumulation” and the cell migration (HBE4 cells [2]) was “significantly increased cell migration”.
With “piR-L-163: sprRNA, SEQ ID NO:282; piRNA-L aligned to intron 10 of LAMC2; AUAUCAUGAUGUUACUUUGAUUCUCUGACC with 3′ 2′-O-methylation (listed as RNA, chemistry not fully specified; listed as Homo sapiens)” the “binding to Moesin-DM” value [3] was “failed to bind”, the “binding to Moesin-WT” value [4] was “bound to piR-L-163” and the cell migration (H1792 cells) was “significantly decreased cell migration”.
